Experimental data taken from patent US12532882B2, “Biocide composition and methods of use” (priority 2017, dated 2026).

Columns and labels:
clubroot resting spores [1] = assay: Clubroot resting spore mortality by Evans blue staining, separate test with AES-100; conditions: all concentrations above 1.5%
seeds = assay: Seed germination in soils saturated with product; conditions: soils saturated with 2% solution
clubroot resting spores [2] = assay: Clubroot resting spore mortality by Evans blue staining (Example 5); conditions: all concentrations above 1.5%
clubroot spores = assay: Clubroot resting spore mortality by Evans blue staining (Example 2); conditions: positive control, 2% concentration

OCl [sodium hypochlorite]
mortality of clubroot resting spores (clubroot resting spores [1]): 100%
seed germination (seeds): no seeds germinated
mortality of clubroot resting spores (clubroot resting spores [2]): 100%
resting spore mortality (clubroot spores): 100%
